# Assay results taken from patent US6887676B1 (priority 1999, dated 2005).
# pKd: −log10 of the molar value.
# Key:
# [1] = target: T1, type 1 PrP^Sc (Homo sapiens, UniProt P04156); assay type: biochemical; settings: FIGS. 3e and f; for ability of selective chelator to mirror the EDTA action on type 1 PrP^Sc cleavage: 20 mM chelator, N-ethylmorpholine buffer; for cleavage pattern of type 1 PrP^Sc digested in presence of copper-selective chelator: 20 mM, intermediate between type 1 and type 2^-
# [2] = target: type 2 PrP^Sc (Homo sapiens, UniProt P04156); settings: different concentrations; FIG. 4d
# [3] = target: T1, type 1 PrP^Sc; settings: for effect of metal ion on electrophoretic mobility of metal-depleted, proteinase K digested type 1 PrP^Sc: exposure prior to and during electrophoresis, FIG. 4b; for digestion products of type 1 PrP^Sc washed in maintained presence of metal ion: total concentrations observed in serum, FIG. 4a; for concentration at which type 1 PrP^Sc conformation could be readily maintained: washing before PK digestion; for effectiveness in maintaining type 1 PrP^Sc conformation: 30 μM metal ion
# [4] = target: recombinant full length hamster PrP (Mesocricetus auratus, UniProt P04273); settings: read-out: dissociation constant of Cu^2+ binding; cited from earlier work
# [5] = system: amyloid Aβ protein; settings: cited from earlier work
# recombinant full length hamster PrP, sequence (P04273 23-254 limits assumed): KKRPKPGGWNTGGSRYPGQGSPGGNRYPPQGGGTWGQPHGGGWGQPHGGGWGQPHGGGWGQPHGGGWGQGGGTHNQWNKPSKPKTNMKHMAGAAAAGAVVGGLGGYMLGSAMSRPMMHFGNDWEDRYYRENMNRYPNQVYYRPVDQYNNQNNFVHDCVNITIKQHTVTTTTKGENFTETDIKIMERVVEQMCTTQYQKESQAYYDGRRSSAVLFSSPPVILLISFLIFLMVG
compound,measurement,setting,value
"c1cnc2c(c1)ccc1cccnc12 [1, 10 phenanthroline]",ability of selective chelator to mirror the EDTA action on type 1 PrP^Sc cleavage,[1],unable to precisely mirror this action
O=S(=O)([O-])[O-].[Cu+2] [Cu^2+],digestion products of type 2 PrP^Sc washed in maintained presence of metal ion,[2],"either the original type 2 pattern of digestion products, or a new pattern of higher molecular mass cleavage fragments closely similar to those generated from untreated type 1 PrP^Sc"
same,cleavage pattern of type 1 PrP^Sc after washing and digestion with Cu^2+,"[3]; 20 μM of range 10-25 μM, FIG. 4a lanes 6-8",migrated with a mobility similar to that of the type 2 products
same,"effect of metal ion on electrophoretic mobility of metal-depleted, proteinase K digested type 1 PrP^Sc",[3],had no effect
same,digestion products of type 1 PrP^Sc washed in maintained presence of metal ion,[3],digestion products closely resembled those generated from untreated type 1 PrP^Sc
same,concentration at which type 1 PrP^Sc conformation could be readily maintained,[3],higher concentrations of Cu^2+ were required
same,pKd,[4],4.85
same,induction of aggregation of Aβ protein,[5],able to induce aggregation of Aβ protein
O=C(O)CN(CCOCCOCCN(CC(=O)O)CC(=O)O)CC(=O)O [EGTA],ability of selective chelator to mirror the EDTA action on type 1 PrP^Sc cleavage,[1],unable to precisely mirror this action
same,cleavage pattern of type 1 PrP^Sc digested in presence of copper-selective chelator,[1],intermediate pattern
[Cl-].[Cl-].[Co+2] [Co^2+],effectiveness in maintaining type 1 PrP^Sc conformation,[3]; FIG. 4c,only Ni^2+ can effectively substitute
same,cleavage pattern of type 1 PrP^Sc after washing and digestion with Co^2+,"[3]; 30 μM, FIG. 4c",intermediate pattern
same,induction of aggregation of Aβ protein,[5],also effective
Cc1ccc2ccc3ccc(C)nc3c2n1 [neocuproine],ability of selective chelator to mirror the EDTA action on type 1 PrP^Sc cleavage,[1],unable to precisely mirror this action
[Cl][Mn][Cl] [Mn^2+],effectiveness in maintaining type 1 PrP^Sc conformation,[3]; FIG. 4c,only Ni^2+ can effectively substitute
[Cl-].[Cl-].[Zn+2] [Zn^2+],digestion products of type 2 PrP^Sc washed in maintained presence of metal ion,[2],"either the original type 2 pattern of digestion products, or a new pattern of higher molecular mass cleavage fragments closely similar to those generated from untreated type 1 PrP^Sc"
same,"effect of metal ion on electrophoretic mobility of metal-depleted, proteinase K digested type 1 PrP^Sc",[3],had no effect
same,digestion products of type 1 PrP^Sc washed in maintained presence of metal ion,[3],digestion products closely resembled those generated from untreated type 1 PrP^Sc
same,concentration at which type 1 PrP^Sc conformation could be readily maintained,[3],10 µM
same,induction of aggregation of Aβ protein,[5],able to induce aggregation of Aβ protein
O=S(=O)(O)c1ccc(-c2ccnc3c2ccc2c(-c4ccc(S(=O)(=O)O)cc4)ccnc23)cc1 [bathophenanthroline disulfonic acid],ability of selective chelator to mirror the EDTA action on type 1 PrP^Sc cleavage,[1],unable to precisely mirror this action
NCCNCCNCCN [triethylenetetramine],ability of selective chelator to mirror the EDTA action on type 1 PrP^Sc cleavage,[1],unable to precisely mirror this action
same,cleavage pattern of type 1 PrP^Sc digested in presence of copper-selective chelator,[1],intermediate pattern
[Cl][Ni][Cl] [Ni^2+],effectiveness in maintaining type 1 PrP^Sc conformation,[3]; FIG. 4c,can effectively substitute
same,induction of aggregation of Aβ protein,[5],also effective
O=C(O)c1cccc(C(=O)O)n1 [dipicolinic acid],ability of selective chelator to mirror the EDTA action on type 1 PrP^Sc cleavage,[1],unable to precisely mirror this action
